T1: NF-κB (p50) (Homo sapiens, UniProt P19838)
T1 sequence (P19838 1-433 limits assumed): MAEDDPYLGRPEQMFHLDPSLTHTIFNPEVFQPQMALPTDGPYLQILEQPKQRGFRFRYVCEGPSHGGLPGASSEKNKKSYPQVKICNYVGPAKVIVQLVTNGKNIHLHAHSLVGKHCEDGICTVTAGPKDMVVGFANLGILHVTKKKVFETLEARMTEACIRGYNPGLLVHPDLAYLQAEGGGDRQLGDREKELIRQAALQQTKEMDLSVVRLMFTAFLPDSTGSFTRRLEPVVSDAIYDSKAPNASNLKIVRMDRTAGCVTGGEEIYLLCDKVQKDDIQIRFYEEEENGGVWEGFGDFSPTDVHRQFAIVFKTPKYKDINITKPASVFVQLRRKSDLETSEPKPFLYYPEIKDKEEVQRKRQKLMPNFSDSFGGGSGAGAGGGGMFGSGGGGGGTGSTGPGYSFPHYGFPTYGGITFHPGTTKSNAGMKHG

T2: NF-κB (p52) (Homo sapiens, UniProt Q00653)
T2 sequence (Q00653 1-454 limits assumed): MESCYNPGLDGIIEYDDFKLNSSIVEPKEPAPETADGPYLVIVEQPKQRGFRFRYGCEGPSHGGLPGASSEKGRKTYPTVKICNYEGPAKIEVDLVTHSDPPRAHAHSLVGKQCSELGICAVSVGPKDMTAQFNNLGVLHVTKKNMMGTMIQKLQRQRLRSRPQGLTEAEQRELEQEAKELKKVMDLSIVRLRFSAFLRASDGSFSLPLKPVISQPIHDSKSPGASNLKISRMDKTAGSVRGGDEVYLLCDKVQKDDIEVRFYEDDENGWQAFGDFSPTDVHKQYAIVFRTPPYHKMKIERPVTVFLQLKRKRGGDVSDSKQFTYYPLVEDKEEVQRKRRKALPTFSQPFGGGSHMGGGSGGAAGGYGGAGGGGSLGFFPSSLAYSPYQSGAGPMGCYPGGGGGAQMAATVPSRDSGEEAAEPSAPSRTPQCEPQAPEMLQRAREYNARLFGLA


Key:
NF-κB (p50) = target: T1, NF-κB (p50); experiment: DSE-FRET DNA-binding
NF-κB (p52) = target: T2, NF-κB (p52); experiment: DSE-FRET DNA-binding
GST-NF-kB p50 = GST-NF-kB p50 (human, UniProt P19838 1-433); experiment: DSE-FRET

IC50 (NF-κB (p50)) | IC50 (NF-κB (p52)) | Molecule | apparent K (half saturation) (GST-NF-kB p50)
8.8 µM | 62.5 µM | O=C(NC1=CC(=O)[C@H]2O[C@H]2[C@H]1O)c1ccccc1O [(−)-DHMEQ] | –
12.9 µM | 12.8 µM | Cc1cc(-c2ccc(/N=N/c3ccc4c(S(=O)(=O)O)cc(S(=O)(=O)O)c(N)c4c3O)c(C)c2)ccc1/N=N/c1ccc2c(S(=O)(=O)O)cc(S(=O)(=O)O)c(N)c2c1O [EB, Evans Blue] | –
– | – | NF-D1 (NF-01F/NF-14D) (dsDNA) DNA 1: AGTTGAGGGGACTTTCCCAGGCGACTCACTATAGGCGGTGTCTCGCTCGC DNA 2: GGGAATGGTGTGGTGCCTATAGTGAGTCGCCTGGGAAAGTCCCCTCAACT | ~40 nM

From article PMC4317927 (Cancer Science, 2014)
